Data published in patent publication EP1067939B1, “USE OF STEROIDAL ALKALOID DERIVATIVES AS INHIBITORS OF HEDGEHOG PROTEIN SIGNALING PATHWAYS” (The Johns Hopkins University, priority 1998, dated 1999).
Several values for one entry are separate records, joined by “and”; a condition that tells them apart may be missing. Equal values may be shown once.

Columns and labels:
[1] = test system: primary human lymphoblasts; assay: Cholesterol Biosynthesis Assay (sterol profiles of cultured cells); type: cell-based; details: for Percent Sterols: Cholesterol / Percent Sterols: c. Cholesta-7,24-dien-3ß-ol / Percent Sterols: e. Cholesta-8(14)-en-3ß-ol / Percent Sterols: f. 7 Dehydrocholesterol / Percent Sterols: h. C27 Sterol 1 (mw 384) / Percent Sterols: j. C27 Oxysterol 1 (mw 400) / Percent Sterols: k. C27 Oxysterol 2 (mw 400) / Total Sterols (µg/mg protein) / Percent Sterols: i. C27 Sterol 2 (mw 382) / Percent Sterols: 2. C28 Sterols / Percent Sterols: 3. C29 Sterols / Percent Sterols: d. Zymosterol: five days
[2] = test system: endogenous Shh signaling; assay: Midline neural plate/notochord explant assay of endogenous Shh signaling; type: cell-based, chick
[3] = test system: Ptc -/- MEFs; assay: β-galactosidase activity in ptc-lacZ mouse embryonic fibroblasts; type: cell-based; details: Ptc -/- MEFs 21-4, 16 hours (Figure 15)
From the text: These studies involve the use of mouse embryonic fibroblasts (MEFs) that were generated by trypsin digestion of E8.5 embryos from patched (ptc) +/- matings.
The MEF line 23-4 is heterozygous for ptc-lacZ, and thus contains one functional ptc allele capable of maintaining a repressed state of the pathway, but will express lacZ when the pathway is activated by addition of Shh protein (see Figure 12).

[4] = test system: vibrissa follicle; assay: Vibrissa follicle explant cultures; type: cell-based, mouse
Protocol: Vibrissa follicle explants were established using CD- I mouse embryos at 13.5 days of gestation according to a previously described protocol (Hirai et al., 1989), with minor midifications. Vibrissa pads were transferred onto Nuclepore filters (13 mm, 8 µm pores), and floated on, 2 ml of medium [DMEM (Life Technologies. Gaithersburg, MD) + Ham's F12 medium (Life Technologies) (1:1), with 1% FCS (Intergen, Purchase. NY), penicillin (50 units/ml) and streptomycin (50 gg/ml) (Life Technologies)] in 6-well plates. […] Explants were fed fresh medium every two days. Microdissection was performed with the aid of a Nikon SMZ-2T stereomicroscope and photomicrographs were taken using an Olympus OM-4 camera. Cycloparnine was stored at -20 as a 10 mM stock in 95% EtOH.
RNA was obtained by solubilizing individual explants in TriZol (Life Sciences) and isolating as recommended by the manufacturer. cDNA was synthesized using SuperScript II Rnase H reverse transcriptase with random primers (Life Technologies), and RT-PCR performed using the following primers: MHKA1 (318 bp product), (forward 5'-[…]-3' and reverse 5'-[…]-3'); hacl-1 (308 bp product), (forward 5'-[…].3 and reverse 5'-[…]-3'); profilaggrin (330 bp product), (forward 5-[…]-3' and reverse 5'-[…]-3') (Bickenbach et al., 1995); P actin (421 bp product), (for-ward 5'-[…]-3' and reverse 5'[…]-3') (Walterhouse et al., 1993). The following PCR conditions were used for MHKA1. […]
Explants were established using vibrissa pads obtained from mice at 13.5 days of gestation (Hirai et al., 1989). […] These follicles contained hair shafts and expressed genes encoding mouse hair keratin A I (MHKA 1) (Kaytes et al., 199 1) and a hair cortex-specific marker Hacl- 1 (Huh et al., 1994), detected by RT-PCR (Fig. 11B). […] In keeping with our results obtained using Shh mutant skin, hair-specific transcripts are detected in cycloparnine-treated grafts (Fig. 11B) despite their altered development, providing further support for the notion that biochemical differentiation of the follicle is not necessarily coupled to its morphogenesis.

[5] = cultured vibrissa explants, RT-PCR

In the case of `C[C@H]1CC[C@]2(NC1)O[C@H]1C[C@H]3[C@@H]4CC[C@H]5C[C@@H](O)CC[C@]5(C)[C@H]4CC[C@]3(C)[C@H]1[C@@H]2C` [Tomatidine, tomatidine], the “Percent Sterols: b. 7 Dehydrodesmosterol” value [1] is reported as 0.8% and 0.5%, the “Percent Sterols: g. Lathosterol” value [1] is reported as 4.9% and 4.7% and 3.6% and the “Percent Sterols: Cholesterol” value ([1]; 1.25 µM) is reported as 54%. For the same molecule, the “Percent Sterols: c. Cholesta-7,24-dien-3ß-ol” value ([1]; 1.25 µM) was 0.9%, the “Percent Sterols: e. Cholesta-8(14)-en-3ß-ol” value ([1]; 1.25 µM) was 6.7% and the “Percent Sterols: f. 7 Dehydrocholesterol” value ([1]; 1.25 µM) was 19%. The “Percent Sterols: h. C27 Sterol 1 (mw 384)” value (shortened to “Percent Sterols … (mw 384)”) ([1]; 1.25 µM) was 7.0%, the “Percent Sterols: j. C27 Oxysterol 1 (mw 400)” value ([1]; 1.25 µM) was 1.0% and the “Percent Sterols: k. C27 Oxysterol 2 (mw 400)” value ([1]; 1.25 µM) was 2.0%. For the same molecule, the “Total Sterols (µg/mg protein)” value ([1]; 1.25 µM) was 7.8 µg/mg protein, the “Percent Sterols: Cholesterol” value ([1]; 2.5 µM) was 42% and the “Percent Sterols: c. Cholesta-7,24-dien-3ß-ol” value ([1]; 2.5 µM) was 0.9%. The “Percent Sterols: e. Cholesta-8(14)-en-3ß-ol” value ([1]; 2.5 µM) was 8.9%, the “Percent Sterols: f. 7 Dehydrocholesterol” value ([1]; 2.5 µM) was 14% and the “Percent Sterols … (mw 384)” value ([1]; 2.5 µM) was 13%. The “Percent Sterols: i. C27 Sterol 2 (mw 382)” value ([1]; 2.5 µM) was 4.1%, the “Percent Sterols: j. C27 Oxysterol 1 (mw 400)” value ([1]; 2.5 µM) was 2.4% and the “Percent Sterols: k. C27 Oxysterol 2 (mw 400)” value ([1]; 2.5 µM) was 5.0%. The “Total Sterols (µg/mg protein)” value ([1]; 2.5 µM) was 7.8 µg/mg protein, the “Percent Sterols: 2. C28 Sterols” value ([1]; 5.0 µM) was 1.6% and the “Percent Sterols: 3. C29 Sterols” value ([1]; 5.0 µM) was 3.1%. The “Percent Sterols: Cholesterol” value ([1]; 5.0 µM) was 32%, the “Percent Sterols: c. Cholesta-7,24-dien-3ß-ol” value ([1]; 5.0 µM) was 0.7% and the “Percent Sterols: e. Cholesta-8(14)-en-3ß-ol” value ([1]; 5.0 µM) was 8.7%. The “Percent Sterols: f. 7 Dehydrocholesterol” value ([1]; 5.0 µM) was 9.8%, the “Percent Sterols … (mw 384)” value ([1]; 5.0 µM) was 20% and the “Percent Sterols: i. C27 Sterol 2 (mw 382)” value ([1]; 5.0 µM) was 4.7%. For the same molecule, the “Percent Sterols: j. C27 Oxysterol 1 (mw 400)” value ([1]; 5.0 µM) was 4.5%, the “Percent Sterols: k. C27 Oxysterol 2 (mw 400)” value ([1]; 5.0 µM) was 11% and the “Total Sterols (µg/mg protein)” value ([1]; 5.0 µM) was 5.6 µg/mg protein. For the same molecule, the “expression of HNF3β and Isl-1” value ([2]; midline explants, 50 µM (Fig. 3C)) was “unable to block expression of HNF3β and Isl-1” and the “reduction of β-galactosidase activity” value [3] was “cannot he achieved”.

With `CC1=C2C[C@H]3[C@@H](CC=C4C[C@@H](O)CC[C@@]43C)[C@@H]2CC[C@]12O[C@@H]1C[C@H](C)CN[C@H]1[C@H]2C` [Cyclopamine, cyclopamine] the “Percent Sterols: b. 7 Dehydrodesmosterol” value [1] was 0.8%, the “Percent Sterols: 2. C28 Sterols” value ([1]; 1.25 µM) was 1.2% and the “Percent Sterols: 3. C29 Sterols” value ([1]; 1.25 µM) was 0.7%. The “Percent Sterols: Cholesterol” value ([1]; 1.25 µM) was 87%, the “Percent Sterols: c. Cholesta-7,24-dien-3ß-ol” value ([1]; 1.25 µM) was 0.6% and the “Percent Sterols: d. Zymosterol” value ([1]; 1.25 µM) was 2.3%. The “Percent Sterols: e. Cholesta-8(14)-en-3ß-ol” value ([1]; 1.25 µM) was 0.9%, the “Percent Sterols: f. 7 Dehydrocholesterol” value ([1]; 1.25 µM) was 2.4% and the “Total Sterols (µg/mg protein)” value ([1]; 1.25 µM) was 8.4 µg/mg protein. For the same molecule, the “Percent Sterols: 2. C28 Sterols” value ([1]; 2.5 µM) was 1.3%, the “Percent Sterols: 3. C29 Sterols” value ([1]; 2.5 µM) was 1.2% and the “Percent Sterols: Cholesterol” value ([1]; 2.5 µM) was 76%. For the same molecule, the “Percent Sterols: c. Cholesta-7,24-dien-3ß-ol” value ([1]; 2.5 µM) was 0.9%, the “Percent Sterols: d. Zymosterol” value ([1]; 2.5 µM) was 4.5% and the “Percent Sterols: e. Cholesta-8(14)-en-3ß-ol” value ([1]; 2.5 µM) was 2.5%. The “Percent Sterols: f. 7 Dehydrocholesterol” value ([1]; 2.5 µM) was 4.2%, the “Total Sterols (µg/mg protein)” value ([1]; 2.5 µM) was 8.5 µg/mg protein and the “Percent Sterols: 2. C28 Sterols” value ([1]; 5.0 µM) was 1.8%. For the same molecule, the “Percent Sterols: 3. C29 Sterols” value ([1]; 5.0 µM) was 3.1%, the “Percent Sterols: Cholesterol” value ([1]; 5.0 µM) was 68% and the “Percent Sterols: c. Cholesta-7,24-dien-3ß-ol” value ([1]; 5.0 µM) was 1.6%. The “Percent Sterols: d. Zymosterol” value ([1]; 5.0 µM) was 4.7%, the “Percent Sterols: e. Cholesta-8(14)-en-3ß-ol” value ([1]; 5.0 µM) was 2.7% and the “Percent Sterols: f. 7 Dehydrocholesterol” value ([1]; 5.0 µM) was 6.3%. The “Total Sterols (µg/mg protein)” value ([1]; 5.0 µM) was 8.3 µg/mg protein, the “Higher doses that fully inhibit HNF3β and Isl-1 induction” value [2] was 1.0 µM and the “Intermediate doses that block induction of HNF3β while permitting induction of Isl-1” value [2] was 0.25 µM. For the same molecule, the “late-stage follicle differentiation markers” value [4, 5] was “detected”, the “profilaggrin mRNA (epidermal differentiation)” value [4, 5] was “accumulate profilaggrin mRNA” and the “Morphogenesis of vibrissa follicles” value ([4]; cyclopamine present in the medium for the duration of the experiment, concentration printed as I ∼M) was “blocked”.
